Measurements: US8865731B2, “Inhibitor of analgesic tolerance” (Kyowa Hakko Kirin Co., Ltd., priority 2008, dated 2014)

Assays:
Male ddY mice [1] = assay: Suppressing activity on morphine analgesic tolerance (hot plate method, response latency); type: in vivo; settings: for ΔChange (Latency at each time point − Pre value) 0.5 h: day 7, 0.5 h; for ΔChange (Latency at each time point − Pre value) 1 h: day 7, 1 h; for ΔChange (Latency at each time point − Pre value) 2 h: day 7, 2 h
Male ddY mice [2] = assay: Suppressing activity on oxycodone analgesic tolerance (hot plate method, response latency); settings: for Latency (sec) Pre value (before drug administration on last day) / ΔChange (Latency at each time point − Pre value) 0.5 h / ΔChange (Latency at each time point − Pre value) 1 h / ΔChange (Latency at each time point − Pre value) 2 h: Table 6
[3] = Table 4, Compound (IIA) 100 mg/kg p.o. repeatedly administered alone
[4] = Table 4, repeated combination group: Compound (IIA) 100 mg/kg p.o. 30 min before each morphine 6 mg/kg s.c., 7 days
[5] = Table 1, Compound (IIIB) 3 mg/kg p.o. repeatedly administered alone
[6] = Table 1, repeated combination group: Compound (IIIB) 3 mg/kg p.o. 30 min before each morphine 6 mg/kg s.c., 7 days
[7] = Table 2, Compound (IIIC) 1 mg/kg p.o. repeatedly administered alone
[8] = Table 2, repeated combination group: Compound (IIIC) 1 mg/kg p.o. 30 min before each morphine 6 mg/kg s.c., 7 days
[9] = Table 5, compound 30 mg/kg p.o. repeatedly administered alone
[10] = Table 5, repeated combination group: compound 30 mg/kg p.o. 30 min before each morphine 6 mg/kg s.c., 7 days
[11] = Test Example 6, compound 30 mg/kg p.o. 30 min before each morphine 6 mg/kg s.c., 7 days
[12] = Test Example 6, compound 30 mg/kg p.o. repeatedly administered alone
[13] = Table 4, Compound (VIA) 30 mg/kg p.o. repeatedly administered alone
[14] = Table 4, repeated combination group: Compound (VIA) 30 mg/kg p.o. 30 min before each morphine 6 mg/kg s.c., 7 days
[15] = Table 4, Compound (VII) 60 mg/kg p.o. repeatedly administered alone
[16] = Table 4, repeated combination group: Compound (VII) 60 mg/kg p.o. 30 min before each morphine 6 mg/kg s.c., 7 days

Structure (SMILES): CC(C)(O)CCN1CCN(c2cc3nc(-c4ccco4)nn3c(N)n2)CC1 [Compound (IIA)]
- ΔChange (Latency at each time point − Pre value) 0.5 h (Male ddY mice [1]; [3]): 1.2 ± 1.5 s
- ΔChange (Latency at each time point − Pre value) 1 h (Male ddY mice [1]; [3]): 1.7 ± 1.4 s
- ΔChange (Latency at each time point − Pre value) 2 h (Male ddY mice [1]; [3]): 0.9 ± 1.1 s
- ΔChange (Latency at each time point − Pre value) 0.5 h (Male ddY mice [1]; [4]): 12.8 ± 1.9 s
- ΔChange (Latency at each time point − Pre value) 1 h (Male ddY mice [1]; [4]): 6.4 ± 1.7 s
- ΔChange (Latency at each time point − Pre value) 2 h (Male ddY mice [1]; [4]): 2.4 ± 1.2 s
- development of analgesic tolerance (response latency) (Male ddY mice [1]; Test Example 5, Compound (IIA) 100 mg/kg p.o. 30 min before each morphine 6 mg/kg s.c., 7 days): the development of analgesic tolerance was prevented
- effect on the response latency (Male ddY mice [1]; Test Example 5, Compound (IIA) 100 mg/kg p.o. repeatedly administered alone): the effect on the response latency was not observed

Structure (SMILES): Cc1ncc(C(=O)Nc2nc(-c3ccco3)c(C(=O)C3CCOCC3)s2)cn1 [Compound (IIIB)]
- ΔChange (Latency at each time point − Pre value) 0.5 h (Male ddY mice [1]; [5]): 0.1 ± 0.5 s
- ΔChange (Latency at each time point − Pre value) 1 h (Male ddY mice [1]; [5]): −0.1 ± 0.4 ^ sec
- ΔChange (Latency at each time point − Pre value) 2 h (Male ddY mice [1]; [5]): 0.4 ± 1.2 s
- ΔChange (Latency at each time point − Pre value) 0.5 h (Male ddY mice [1]; [6]): 18.2 ± 1.2 s
- ΔChange (Latency at each time point − Pre value) 1 h (Male ddY mice [1]; [6]): 13.5 ± 0.8 s
- ΔChange (Latency at each time point − Pre value) 2 h (Male ddY mice [1]; [6]): 4.8 ± 0.7 s
- development of analgesic tolerance (response latency) (Male ddY mice [1]; Test Example 3, Compound (IIIB) 3 mg/kg p.o. 30 min before each morphine 6 mg/kg s.c., 7 days): the development of analgesic tolerance was prevented
- effect on the response latency (Male ddY mice [1]; Test Example 3, Compound (IIIB) 3 mg/kg p.o. repeatedly administered alone): the effect on the response latency was not observed

Structure (SMILES): Cc1ccc(C(=O)Nc2nc(-c3ccco3)c(C(=O)C3CCOCC3)s2)cn1 [Compound (IIIC)]
- ΔChange (Latency at each time point − Pre value) 0.5 h (Male ddY mice [1]; [7]): −2.2 ± 1.3^ sec
- ΔChange (Latency at each time point − Pre value) 1 h (Male ddY mice [1]; [7]): -1.0 ± 0.7 s
- ΔChange (Latency at each time point − Pre value) 2 h (Male ddY mice [1]; [7]): -1.0 ± 0.9 s
- ΔChange (Latency at each time point − Pre value) 0.5 h (Male ddY mice [1]; [8]): 16.1 ± 2.4 s
- ΔChange (Latency at each time point − Pre value) 1 h (Male ddY mice [1]; [8]): 9.3 ± 1.6 s
- ΔChange (Latency at each time point − Pre value) 2 h (Male ddY mice [1]; [8]): 1.9 ± 0.9 s
- development of analgesic tolerance (response latency) (Male ddY mice [1]; Test Example 3, Compound (IIIC) 1 mg/kg p.o. 30 min before each morphine 6 mg/kg s.c., 7 days): the development of analgesic tolerance was prevented
- effect on the response latency (Male ddY mice [1]; Test Example 3, Compound (IIIC) 1 mg/kg p.o. repeatedly administered alone): the effect on the response latency was not observed

Structure (SMILES): COCCOc1ccc(N2CCN(CCn3ncc4c3nc(N)n3nc(-c5ccco5)nc43)CC2)cc1 [Compound (IVA)]
- ΔChange (Latency at each time point − Pre value) 0.5 h (Male ddY mice [1]; [9]): 0.5 ± 0.6 s
- ΔChange (Latency at each time point − Pre value) 1 h (Male ddY mice [1]; [9]): −0.4 ± 1.0 ^ sec
- ΔChange (Latency at each time point − Pre value) 2 h (Male ddY mice [1]; [9]): -0.5 ± 1.4 s
- ΔChange (Latency at each time point − Pre value) 0.5 h (Male ddY mice [1]; [10]): 14.9 ± 1.6 s
- ΔChange (Latency at each time point − Pre value) 1 h (Male ddY mice [1]; [10]): 8.3 ± 0.4 s
- ΔChange (Latency at each time point − Pre value) 2 h (Male ddY mice [1]; [10]): 0.7 ± 1.1 s
- development of analgesic tolerance (response latency) (Male ddY mice [1]; [11]): the development of analgesic tolerance was prevented
- effect on the response latency (Male ddY mice [1]; [12]): the effect on the response latency was not observed

Structure (SMILES): CCCCc1nc(N)c2nc(-n3nccn3)n(C)c2n1 [Compound (VIA)]
- ΔChange (Latency at each time point − Pre value) 0.5 h (Male ddY mice [1]; [13]): -0.8 ± 1.3 s
- ΔChange (Latency at each time point − Pre value) 1 h (Male ddY mice [1]; [13]): 0.2 ± 2.1 s
- ΔChange (Latency at each time point − Pre value) 2 h (Male ddY mice [1]; [13]): -0.2 ± 1.1 s
- ΔChange (Latency at each time point − Pre value) 0.5 h (Male ddY mice [1]; [14]): 13.0 ± 2.4 s
- ΔChange (Latency at each time point − Pre value) 1 h (Male ddY mice [1]; [14]): 7.6 ± 1.7 s
- ΔChange (Latency at each time point − Pre value) 2 h (Male ddY mice [1]; [14]): 1.9 ± 1.3 s
- development of analgesic tolerance (response latency) (Male ddY mice [1]; Test Example 5, Compound (VIA) 30 mg/kg p.o. 30 min before each morphine 6 mg/kg s.c., 7 days): the development of analgesic tolerance was prevented
- effect on the response latency (Male ddY mice [1]; Test Example 5, Compound (VIA) 30 mg/kg p.o. repeatedly administered alone): the effect on the response latency was not observed

Structure (SMILES): Cc1nc(-c2sc(NC(=O)C3CC3)nc2-c2ccccc2)no1 [Compound (VII)]
- ΔChange (Latency at each time point − Pre value) 0.5 h (Male ddY mice [1]; [15]): -0.8 ± 1.0 s
- ΔChange (Latency at each time point − Pre value) 1 h (Male ddY mice [1]; [15]): -0.7 ± 1.0 s
- ΔChange (Latency at each time point − Pre value) 2 h (Male ddY mice [1]; [15]): 0.0 ± 0.6 s
- ΔChange (Latency at each time point − Pre value) 0.5 h (Male ddY mice [1]; [16]): 12.8 ± 2.1 s
- ΔChange (Latency at each time point − Pre value) 1 h (Male ddY mice [1]; [16]): 7.8 ± 1.3 s
- ΔChange (Latency at each time point − Pre value) 2 h (Male ddY mice [1]; [16]): 1.8 ± 0.8 s
- development of analgesic tolerance (response latency) (Male ddY mice [1]; Test Example 5, Compound (VII) 60 mg/kg p.o. 30 min before each morphine 6 mg/kg s.c., 7 days): the development of analgesic tolerance was prevented
- effect on the response latency (Male ddY mice [1]; Test Example 5, Compound (VII) 60 mg/kg p.o. repeatedly administered alone): the effect on the response latency was not observed

Structure (SMILES): Cc1cc(Cn2nnc3c(-c4ccco4)nc(N)nc32)ccc1N [Compound (VIII)]
- ΔChange (Latency at each time point − Pre value) 0.5 h (Male ddY mice [1]; [9]): −0.5 ± 0.9 ^ sec
- ΔChange (Latency at each time point − Pre value) 1 h (Male ddY mice [1]; [9]): 0.1 ± 0.9 s
- ΔChange (Latency at each time point − Pre value) 2 h (Male ddY mice [1]; [9]): -1.1 ± 1.1 s
- ΔChange (Latency at each time point − Pre value) 0.5 h (Male ddY mice [1]; [10]): 13.6 ± 1.6 s
- ΔChange (Latency at each time point − Pre value) 1 h (Male ddY mice [1]; [10]): 7.8 ± 0.8 s
- ΔChange (Latency at each time point − Pre value) 2 h (Male ddY mice [1]; [10]): 1.1 ± 0.8 s
- development of analgesic tolerance (response latency) (Male ddY mice [1]; [11]): the development of analgesic tolerance was prevented
- effect on the response latency (Male ddY mice [1]; [12]): the effect on the response latency was not observed

Structure (SMILES): COc1ccc2c3c1O[C@H]1C(=O)CC[C@@]4(O)[C@@H](C2)N(C)CC[C@]314 [oxycodone, reference compound]
- Latency (sec) Pre value (before drug administration on last day) (Male ddY mice [2]; repeated oxycodone administration group: oxycodone 20 mg/kg p.o. twice a day, 4 days, day 4): 12.4 ± 1.1 s
- ΔChange (Latency at each time point − Pre value) 0.5 h (Male ddY mice [2]; repeated oxycodone administration group: oxycodone 20 mg/kg p.o. twice a day, 4 days, day 4, 0.5 h): 5.9 ± 3.4 s
- ΔChange (Latency at each time point − Pre value) 1 h (Male ddY mice [2]; repeated oxycodone administration group: oxycodone 20 mg/kg p.o. twice a day, 4 days, day 4, 1 h): 2.7 ± 2.3 s
- ΔChange (Latency at each time point − Pre value) 2 h (Male ddY mice [2]; repeated oxycodone administration group: oxycodone 20 mg/kg p.o. twice a day, 4 days, day 4, 2 h): 0.1 ± 1.3 s
- Latency (sec) Pre value (before drug administration on last day) (Male ddY mice [2]; single oxycodone administration group: distilled water twice a day 3 days, oxycodone 20 mg/kg p.o. only on day 4): 11.7 ± 1.0 s
- ΔChange (Latency at each time point − Pre value) 0.5 h (Male ddY mice [2]; single oxycodone administration group: oxycodone 20 mg/kg p.o. only on day 4, 0.5 h): 17.5 ± 4.2 s
- ΔChange (Latency at each time point − Pre value) 1 h (Male ddY mice [2]; single oxycodone administration group: oxycodone 20 mg/kg p.o. only on day 4, 1 h): 11.8 ± 2.0 s
- ΔChange (Latency at each time point − Pre value) 2 h (Male ddY mice [2]; single oxycodone administration group: oxycodone 20 mg/kg p.o. only on day 4, 2 h): 6.9 ± 2.4 s
- development of analgesic tolerance (response latency) (Male ddY mice [2]; Test Example 7, oxycodone 20 mg/kg p.o. repeatedly for 4 days vs single oxycodone administration group): the development of analgesic tolerance was observed
